According to ChEMBL document CHEMBL5058645, “Data for DCP probe JNJ-6204” (2022):

Legend:
[1] = molecular target: 5-hydroxytryptamine receptor 2A (Homo sapiens) (UniProt P28223); conditions: Compound concentration 10.0 uM, tested as the 2H-labelled form
[2] = molecular target: Serine/threonine-protein kinase Sgk2 (Homo sapiens) (UniProt Q9HBY8); assay: SGK2(h) Kinase panel; conditions: Compound concentration 1.0 uM, tested as the 2H-labelled form
[3] = molecular target: Myosin-IIIb (Homo sapiens) (UniProt Q8WXR4); assay: MYO3B(h) Kinase panel; conditions: Compound concentration 1.0 uM, tested as the 2H-labelled form
[4] = molecular target: Serine/threonine-protein kinase Sgk3 (Homo sapiens) (UniProt Q96BR1); assay: SGK3(h) Kinase panel; conditions: Compound concentration 1.0 uM, tested as the 2H-labelled form
[5] = molecular target: Tyrosine-protein kinase Tec (Homo sapiens) (UniProt P42680); assay: Tec(h) activated Kinase panel; conditions: Compound concentration 1.0 uM, tested as the 2H-labelled form
[6] = molecular target: Serine/threonine-protein kinase Nek2 (Homo sapiens) (UniProt P51955); assay: NEK2(h) Kinase panel; conditions: Compound concentration 1.0 uM, tested as the 2H-labelled form
[7] = molecular target: Serine/threonine-protein kinase Chk1 (Homo sapiens) (UniProt O14757); assay: CHK1(h) Kinase panel; conditions: Compound concentration 1.0 uM, tested as the 2H-labelled form
[8] = molecular target: Wee1-like protein kinase (Homo sapiens) (UniProt P30291); assay: Wee1(h) Kinase panel; conditions: Compound concentration 1.0 uM, tested as the 2H-labelled form
[9] = molecular target: Mu-type opioid receptor (Homo sapiens) (UniProt P35372); conditions: Compound concentration 10.0 uM, tested as the 2H-labelled form
[10] = molecular target: Serine/threonine-protein kinase 32A (Homo sapiens) (UniProt Q8WU08); assay: STK32A(h) Kinase panel; conditions: Compound concentration 1.0 uM, tested as the 2H-labelled form
[11] = molecular target: Cyclin-dependent kinase 2 (Homo sapiens) (UniProt P24941); assay: CDK2/cyclinE(h) Kinase panel; conditions: Compound concentration 1.0 uM, tested as the 2H-labelled form
[12] = molecular target: Proto-oncogene tyrosine-protein kinase receptor Ret (Homo sapiens) (UniProt P07949); assay: Ret(h) Kinase panel; conditions: Compound concentration 1.0 uM, tested as the 2H-labelled form
[13] = molecular target: Serine/threonine-protein kinase OSR1 (Homo sapiens) (UniProt O95747); assay: OSR1(h) Kinase panel; conditions: Compound concentration 1.0 uM, tested as the 2H-labelled form
[14] = molecular target: Casein kinase I isoform gamma-2 (Homo sapiens) (UniProt P78368); assay: CK1gamma2(h) Kinase panel; conditions: Compound concentration 1.0 uM, tested as the 2H-labelled form
[15] = molecular target: Dual specificity tyrosine-phosphorylation-regulated kinase 2 (Homo sapiens) (UniProt Q92630); assay: DYRK2(h) Kinase panel; conditions: Compound concentration 1.0 uM, tested as the 2H-labelled form
[16] = molecular target: Myosin light chain kinase 2, skeletal/cardiac muscle (Homo sapiens) (UniProt Q9H1R3); assay: MYLK2(h) Kinase panel; conditions: Compound concentration 1.0 uM, tested as the 2H-labelled form
[17] = molecular target: Serine/threonine-protein kinase WNK2 (Homo sapiens) (UniProt Q9Y3S1); assay: WNK2(h) Kinase panel; conditions: Compound concentration 1.0 uM, tested as the 2H-labelled form
[18] = molecular target: Phosphatidylinositol 4,5-bisphosphate 3-kinase catalytic subunit gamma isoform (Homo sapiens) (UniProt P48736); assay: PI3 Kinase (p120g)(h) Kinase panel; conditions: Compound concentration 1.0 uM, tested as the 2H-labelled form
[19] = molecular target: Tau-tubulin kinase 2 (Homo sapiens) (UniProt Q6IQ55); assay: TTBK2(h) Kinase panel; conditions: Compound concentration 1.0 uM, tested as the 2H-labelled form
[20] = molecular target: Cyclin-dependent kinase 18 (Homo sapiens) (UniProt Q07002); assay: CDK18/cyclinY(h) Kinase panel; conditions: Compound concentration 1.0 uM, tested as the 2H-labelled form
[21] = molecular target: 5-hydroxytryptamine receptor 2C (Homo sapiens) (UniProt P28335); conditions: Compound concentration 10.0 uM, tested as the 2H-labelled form
[22] = molecular target: BMP-2-inducible protein kinase (Homo sapiens) (UniProt Q9NSY1); assay: BIKe(h) Kinase panel; conditions: Compound concentration 1.0 uM, tested as the 2H-labelled form
[23] = molecular target: Protein kinase C epsilon type (Homo sapiens) (UniProt Q02156); assay: PKCepsilon (h) Kinase panel; conditions: Compound concentration 1.0 uM, tested as the 2H-labelled form
[24] = molecular target: Phosphatidylinositol 4-phosphate 3-kinase C2 domain-containing subunit alpha (Homo sapiens) (UniProt O00443); assay: PI3KC2a(h) Kinase panel; conditions: Compound concentration 1.0 uM, tested as the 2H-labelled form
[25] = molecular target: Sigma non-opioid intracellular receptor 1 (Homo sapiens) (UniProt Q99720); conditions: Compound concentration 10.0 uM, tested as the 2H-labelled form
[26] = molecular target: Mitogen-activated protein kinase kinase kinase 9 (Homo sapiens) (UniProt P80192); assay: MLK1(h) Kinase panel; conditions: Compound concentration 1.0 uM, tested as the 2H-labelled form
[27] = molecular target: Dual specificity mitogen-activated protein kinase kinase 3 (Homo sapiens) (UniProt P46734); assay: MKK3(h) Kinase panel; conditions: Compound concentration 1.0 uM, tested as the 2H-labelled form
[28] = molecular target: Cyclin-dependent kinase-like 4 (Homo sapiens) (UniProt Q5MAI5); assay: CDKL4(h) Kinase panel; conditions: Compound concentration 1.0 uM, tested as the 2H-labelled form
[29] = molecular target: Wee1-like protein kinase 2 (Homo sapiens) (UniProt P0C1S8); assay: Wee1B(h) Kinase panel; conditions: Compound concentration 1.0 uM, tested as the 2H-labelled form
[30] = molecular target: Cyclin-dependent kinase 6 (Homo sapiens) (UniProt Q00534); assay: CDK6/cyclinD3(h) Kinase panel; conditions: Compound concentration 1.0 uM, tested as the 2H-labelled form
[31] = molecular target: Bone morphogenetic protein receptor type-1B (Homo sapiens) (UniProt O00238); assay: ALK6(h) Kinase panel; conditions: Compound concentration 1.0 uM, tested as the 2H-labelled form
[32] = molecular target: Dual specificity tyrosine-phosphorylation-regulated kinase 3 (Homo sapiens) (UniProt O43781); assay: DYRK3(h) Kinase panel; conditions: Compound concentration 1.0 uM, tested as the 2H-labelled form
[33] = molecular target: Cyclin-dependent kinase 13 (Homo sapiens) (UniProt Q14004); assay: CDK13/cyclinK(h) Kinase panel; conditions: Compound concentration 1.0 uM, tested as the 2H-labelled form
[34] = molecular target: Dual specificity mitogen-activated protein kinase kinase 6 (Homo sapiens) (UniProt P52564); assay: MKK6(h) Kinase panel; conditions: Compound concentration 1.0 uM, tested as the 2H-labelled form
[35] = molecular target: Serine/threonine-protein kinase Nek11 (Homo sapiens) (UniProt Q8NG66); assay: NEK11(h) Kinase panel; conditions: Compound concentration 1.0 uM, tested as the 2H-labelled form
[36] = molecular target: Cyclin-dependent kinase-like 3 (Homo sapiens) (UniProt Q8IVW4); assay: CDKL3(h) Kinase panel; conditions: Compound concentration 1.0 uM, tested as the 2H-labelled form
[37] = molecular target: Casein kinase I isoform delta (Homo sapiens, UniProt P48730); conditions: Compound concentration 1.0 uM
[38] = molecular target: Rhodopsin kinase GRK7 (Homo sapiens) (UniProt Q8WTQ7); assay: GRK7(h) Kinase panel; conditions: Compound concentration 1.0 uM, tested as the 2H-labelled form
[39] = molecular target: Mast/stem cell growth factor receptor Kit (Homo sapiens) (UniProt P10721); assay: cKit(h) Kinase panel; conditions: Compound concentration 1.0 uM, tested as the 2H-labelled form
[40] = molecular target: Protein kinase C delta type (Homo sapiens) (UniProt Q05655); assay: PKCdelta (h) Kinase panel; conditions: Compound concentration 1.0 uM, tested as the 2H-labelled form
[41] = molecular target: Dual specificity tyrosine-phosphorylation-regulated kinase 1B (Homo sapiens) (UniProt Q9Y463); assay: DYRK1B(h) Kinase panel; conditions: Compound concentration 1.0 uM, tested as the 2H-labelled form
[42] = molecular target: Cyclin-dependent kinase 12 (Homo sapiens) (UniProt Q9NYV4); assay: CDK12/cyclinK(h) Kinase panel; conditions: Compound concentration 1.0 uM, tested as the 2H-labelled form
[43] = molecular target: Serine/threonine-protein kinase SIK2 (Homo sapiens) (UniProt Q9H0K1); assay: SIK2(h) Kinase panel; conditions: Compound concentration 1.0 uM, tested as the 2H-labelled form
[44] = molecular target: Platelet-derived growth factor receptor alpha (Homo sapiens) (UniProt P16234); assay: PDGFRalpha(h) Kinase panel; conditions: Compound concentration 1.0 uM, tested as the 2H-labelled form
[45] = molecular target: Muscarinic acetylcholine receptor M5 (Homo sapiens) (UniProt P08912); conditions: Compound concentration 10.0 uM, tested as the 2H-labelled form
[46] = molecular target: Ribosomal protein S6 kinase alpha-3 (Homo sapiens) (UniProt P51812); assay: Rsk2(h) Kinase panel; conditions: Compound concentration 1.0 uM, tested as the 2H-labelled form

Measured: inhibition

Chain of Dual specificity tyrosine-phosphorylation-regulated kinase 2 (Homo sapiens) (Q92630 whole entry): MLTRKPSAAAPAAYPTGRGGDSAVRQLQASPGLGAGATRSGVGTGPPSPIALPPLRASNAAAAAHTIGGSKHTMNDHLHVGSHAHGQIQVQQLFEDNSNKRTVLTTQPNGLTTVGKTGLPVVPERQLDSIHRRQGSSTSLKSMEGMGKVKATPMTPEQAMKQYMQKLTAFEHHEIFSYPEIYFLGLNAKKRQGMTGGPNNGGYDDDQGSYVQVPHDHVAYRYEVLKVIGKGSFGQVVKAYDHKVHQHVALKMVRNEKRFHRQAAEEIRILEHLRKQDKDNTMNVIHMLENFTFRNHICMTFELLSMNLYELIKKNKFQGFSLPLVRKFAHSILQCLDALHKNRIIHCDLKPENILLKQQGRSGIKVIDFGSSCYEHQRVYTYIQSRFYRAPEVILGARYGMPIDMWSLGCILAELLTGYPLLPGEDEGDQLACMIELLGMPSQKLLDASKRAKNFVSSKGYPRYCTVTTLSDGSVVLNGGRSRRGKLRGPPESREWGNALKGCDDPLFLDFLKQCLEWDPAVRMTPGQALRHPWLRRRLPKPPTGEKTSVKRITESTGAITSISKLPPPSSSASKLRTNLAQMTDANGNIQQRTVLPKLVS
Chain of Myosin light chain kinase 2, skeletal/cardiac muscle (Homo sapiens) (Q9H1R3 whole entry): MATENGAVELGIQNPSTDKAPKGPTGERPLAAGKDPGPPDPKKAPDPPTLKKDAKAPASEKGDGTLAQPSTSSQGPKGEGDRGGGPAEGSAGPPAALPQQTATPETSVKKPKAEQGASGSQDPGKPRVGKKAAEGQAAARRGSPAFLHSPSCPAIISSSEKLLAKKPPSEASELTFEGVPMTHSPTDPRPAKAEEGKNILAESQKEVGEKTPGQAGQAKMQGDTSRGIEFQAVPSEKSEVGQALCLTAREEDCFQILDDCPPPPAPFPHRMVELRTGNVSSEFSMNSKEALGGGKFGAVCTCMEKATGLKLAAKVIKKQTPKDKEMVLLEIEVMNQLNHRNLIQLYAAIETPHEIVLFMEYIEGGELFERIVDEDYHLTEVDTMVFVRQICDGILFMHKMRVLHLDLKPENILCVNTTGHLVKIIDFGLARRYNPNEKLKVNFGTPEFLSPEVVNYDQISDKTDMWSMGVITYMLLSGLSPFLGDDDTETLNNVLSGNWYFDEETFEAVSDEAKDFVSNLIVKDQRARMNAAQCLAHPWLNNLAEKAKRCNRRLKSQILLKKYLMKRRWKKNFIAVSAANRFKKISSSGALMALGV
Chain of Wee1-like protein kinase 2 (Homo sapiens) (P0C1S8 whole entry, looked up): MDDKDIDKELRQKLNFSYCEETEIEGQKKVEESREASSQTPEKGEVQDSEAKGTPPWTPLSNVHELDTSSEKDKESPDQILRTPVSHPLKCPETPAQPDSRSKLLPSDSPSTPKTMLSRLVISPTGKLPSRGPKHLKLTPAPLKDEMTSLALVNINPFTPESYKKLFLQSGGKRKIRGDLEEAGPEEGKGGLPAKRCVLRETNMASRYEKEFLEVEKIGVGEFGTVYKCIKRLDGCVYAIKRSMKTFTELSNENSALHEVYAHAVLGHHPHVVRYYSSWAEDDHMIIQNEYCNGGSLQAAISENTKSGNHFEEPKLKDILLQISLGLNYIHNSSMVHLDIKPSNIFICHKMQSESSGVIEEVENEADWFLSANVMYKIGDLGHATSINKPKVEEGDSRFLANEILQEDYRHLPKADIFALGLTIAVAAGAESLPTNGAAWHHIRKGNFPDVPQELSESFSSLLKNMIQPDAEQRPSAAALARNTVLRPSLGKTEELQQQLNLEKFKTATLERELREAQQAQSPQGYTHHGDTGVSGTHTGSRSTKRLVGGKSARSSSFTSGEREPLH
Chain of Tau-tubulin kinase 2 (Homo sapiens) (Q6IQ55 whole entry): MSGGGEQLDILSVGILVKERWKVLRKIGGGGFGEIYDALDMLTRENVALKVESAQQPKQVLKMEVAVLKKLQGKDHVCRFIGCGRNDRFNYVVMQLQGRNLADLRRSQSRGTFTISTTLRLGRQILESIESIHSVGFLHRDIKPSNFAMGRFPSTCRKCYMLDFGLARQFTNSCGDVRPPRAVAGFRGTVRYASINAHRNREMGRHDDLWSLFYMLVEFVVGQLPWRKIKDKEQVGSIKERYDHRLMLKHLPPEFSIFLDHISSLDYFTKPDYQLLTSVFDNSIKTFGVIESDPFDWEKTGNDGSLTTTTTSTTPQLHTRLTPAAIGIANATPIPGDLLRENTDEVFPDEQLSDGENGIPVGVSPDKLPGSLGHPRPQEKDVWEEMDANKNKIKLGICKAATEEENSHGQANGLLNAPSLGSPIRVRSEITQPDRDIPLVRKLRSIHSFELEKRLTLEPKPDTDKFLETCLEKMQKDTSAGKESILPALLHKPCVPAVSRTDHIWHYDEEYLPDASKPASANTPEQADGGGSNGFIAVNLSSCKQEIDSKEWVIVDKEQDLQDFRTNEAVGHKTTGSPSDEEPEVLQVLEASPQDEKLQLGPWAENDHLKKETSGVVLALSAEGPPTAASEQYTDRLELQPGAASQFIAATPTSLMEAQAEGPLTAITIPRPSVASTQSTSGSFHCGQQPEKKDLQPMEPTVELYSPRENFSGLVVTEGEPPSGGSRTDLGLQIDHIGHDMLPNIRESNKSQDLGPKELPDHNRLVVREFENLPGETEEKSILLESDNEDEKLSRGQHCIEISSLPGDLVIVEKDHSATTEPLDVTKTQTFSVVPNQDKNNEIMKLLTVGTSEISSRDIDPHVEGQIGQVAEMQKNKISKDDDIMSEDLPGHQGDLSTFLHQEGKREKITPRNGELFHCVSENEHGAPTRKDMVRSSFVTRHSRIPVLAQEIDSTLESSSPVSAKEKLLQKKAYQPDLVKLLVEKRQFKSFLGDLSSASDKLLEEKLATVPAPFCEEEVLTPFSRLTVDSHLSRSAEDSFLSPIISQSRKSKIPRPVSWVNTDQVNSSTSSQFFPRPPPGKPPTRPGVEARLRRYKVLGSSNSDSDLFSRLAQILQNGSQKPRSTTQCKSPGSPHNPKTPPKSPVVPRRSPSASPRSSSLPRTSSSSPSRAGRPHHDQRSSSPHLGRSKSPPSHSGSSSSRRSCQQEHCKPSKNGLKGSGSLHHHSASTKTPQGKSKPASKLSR
Chain of Serine/threonine-protein kinase SIK2 (Homo sapiens) (Q9H0K1 whole entry, looked up): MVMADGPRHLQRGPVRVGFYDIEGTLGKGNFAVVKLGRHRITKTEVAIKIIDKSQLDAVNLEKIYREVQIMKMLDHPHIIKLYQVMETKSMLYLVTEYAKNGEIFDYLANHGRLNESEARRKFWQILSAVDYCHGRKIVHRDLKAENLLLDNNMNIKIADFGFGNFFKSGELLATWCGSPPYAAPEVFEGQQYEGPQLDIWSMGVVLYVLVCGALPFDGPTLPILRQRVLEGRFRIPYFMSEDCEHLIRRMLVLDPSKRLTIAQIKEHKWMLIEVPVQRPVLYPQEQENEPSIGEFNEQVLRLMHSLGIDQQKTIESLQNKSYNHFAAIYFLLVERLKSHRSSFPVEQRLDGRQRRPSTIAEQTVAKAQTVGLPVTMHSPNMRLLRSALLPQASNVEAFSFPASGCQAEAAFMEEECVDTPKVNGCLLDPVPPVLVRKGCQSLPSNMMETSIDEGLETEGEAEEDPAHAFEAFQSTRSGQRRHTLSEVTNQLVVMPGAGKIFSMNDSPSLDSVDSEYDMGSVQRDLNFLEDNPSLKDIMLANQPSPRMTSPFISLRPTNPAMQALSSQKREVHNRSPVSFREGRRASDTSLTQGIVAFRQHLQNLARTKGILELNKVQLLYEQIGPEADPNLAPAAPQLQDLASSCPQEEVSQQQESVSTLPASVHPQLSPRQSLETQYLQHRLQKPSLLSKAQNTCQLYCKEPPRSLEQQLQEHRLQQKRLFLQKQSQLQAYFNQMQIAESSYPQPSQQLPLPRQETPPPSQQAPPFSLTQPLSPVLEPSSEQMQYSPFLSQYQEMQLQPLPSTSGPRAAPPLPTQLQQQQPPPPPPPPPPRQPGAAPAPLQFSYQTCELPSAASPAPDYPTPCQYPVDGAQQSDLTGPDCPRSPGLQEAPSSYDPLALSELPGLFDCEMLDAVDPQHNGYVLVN
Chain of 5-hydroxytryptamine receptor 2C (Homo sapiens) (P28335 whole entry): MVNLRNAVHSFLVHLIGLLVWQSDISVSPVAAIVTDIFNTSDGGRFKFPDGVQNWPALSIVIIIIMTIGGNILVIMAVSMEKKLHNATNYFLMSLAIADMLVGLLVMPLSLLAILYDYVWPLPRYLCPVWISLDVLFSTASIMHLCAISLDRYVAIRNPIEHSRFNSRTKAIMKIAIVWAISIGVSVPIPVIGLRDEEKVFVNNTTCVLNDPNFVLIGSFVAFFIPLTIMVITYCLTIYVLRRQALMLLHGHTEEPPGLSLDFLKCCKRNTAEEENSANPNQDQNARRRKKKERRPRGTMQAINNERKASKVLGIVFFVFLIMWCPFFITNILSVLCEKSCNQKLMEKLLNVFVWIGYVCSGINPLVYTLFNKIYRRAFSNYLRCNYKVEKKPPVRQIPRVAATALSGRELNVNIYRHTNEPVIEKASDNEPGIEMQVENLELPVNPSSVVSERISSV
Chain of Cyclin-dependent kinase-like 3 (Homo sapiens) (Q8IVW4 whole entry, looked up, canonical isoform): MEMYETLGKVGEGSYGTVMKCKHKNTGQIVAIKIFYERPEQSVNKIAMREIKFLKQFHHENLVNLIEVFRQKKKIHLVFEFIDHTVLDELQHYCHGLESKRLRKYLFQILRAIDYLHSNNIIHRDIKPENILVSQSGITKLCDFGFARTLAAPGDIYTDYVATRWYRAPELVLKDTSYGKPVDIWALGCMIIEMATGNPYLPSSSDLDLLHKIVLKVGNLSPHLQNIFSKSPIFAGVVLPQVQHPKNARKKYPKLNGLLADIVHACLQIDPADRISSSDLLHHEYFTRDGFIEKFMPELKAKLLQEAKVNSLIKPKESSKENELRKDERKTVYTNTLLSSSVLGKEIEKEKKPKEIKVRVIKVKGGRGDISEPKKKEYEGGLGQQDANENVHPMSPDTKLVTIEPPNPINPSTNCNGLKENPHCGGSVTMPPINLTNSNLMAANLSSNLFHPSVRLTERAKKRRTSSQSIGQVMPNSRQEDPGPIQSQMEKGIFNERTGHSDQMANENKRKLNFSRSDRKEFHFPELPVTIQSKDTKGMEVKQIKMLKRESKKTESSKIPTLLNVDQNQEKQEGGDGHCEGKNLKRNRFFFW

CC1(C)Cn2nc(-c3ccc(F)cn3)c(-c3ccnc4[nH]ncc34)c2CO1
inactive: [1] 16.5% | [2] 9% | [3] 12% | [4] 4% | [5] 29% | [6] 6% | [7] -6% | [8] 10% | [9] -6.9% | [10] 9% | [11] 7% | [12] 14% | [13] 9% | [14] -1% | [15] 0% | [16] 23% | [17] 8% | [18] 2% | [19] 0% | [20] 4% | [21] -1.69% | [22] -8% | [23] -5% | [24] -2% | [25] 15.1% | [26] -3% | [27] 7% | [28] 9% | [29] -1% | [30] -7% | [31] -5% | [32] 7% | [33] 0% | [34] 9% | [35] 12% | [36] -7% | [37] 105% | [38] 16% | [39] -6% | [40] 0% | [41] -10% | [42] -2% | [43] 0% | [44] 2% | [45] -5.3% | [46] 20%
